#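 Assay format: 96-well plates, 48-hour exposure. The concentration for 50% growth inhibition is given as GI50.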 Active and inactive are the calls of the source. Rule as the data show it: active = GI50 up to about 1.1 µM and inactive = higher.
# How the values were obtained:
# Assay in all cases: NCI-60 cell line screen, 48 h
# [1] = system: BT-549
# [2] = system: MCF7
# [3] = system: Malme-3M
# [4] = system: UACC-62
# [5] = system: HL-60
# [6] = system: LOX IMVI
# [7] = system: OVCAR-3
# [8] = system: HOP-92
# [9] = system: HCT-116
# [10] = system: NCI/ADR-RES
# [11] = system: DU-145
# [12] = system: RPMI-8226
# [13] = system: RXF 393
# [14] = system: T47D
# [15] = system: PC-3
# [16] = system: NCI-H522
# [17] = system: SN12C
# [18] = system: SF-295
# [19] = system: HCC 2998
# [20] = system: SK-OV-3
Structure (SMILES),GI50 [1],GI50 [2],GI50 [3],GI50 [4],GI50 [5],GI50 [6],GI50 [7],GI50 [8],GI50 [9],GI50 [10],GI50 [11],GI50 [12],GI50 [13],GI50 [14],GI50 [15],GI50 [16],GI50 [17],GI50 [18],GI50 [19],GI50 [20]
Clc1ccc(C2C3COc4ccccc4C3=NN2c2ccccc2)cc1 (stereo not drawn),68.5 µM (inactive),3.84 µM (inactive),> 100 µM (inactive),64.7 µM (inactive),27.4 µM (inactive),7.19 µM (inactive),> 57.3 µM (inactive),> 100 µM (inactive),33.2 µM (inactive),29.7 µM (inactive),> 80.5 µM (inactive),2.1 µM (inactive),95.5 µM (inactive),> 69.7 µM (inactive),> 67.1 µM (inactive),17.8 µM (inactive),43.6 µM (inactive),> 100 µM (inactive),> 100 µM (inactive),> 100 µM (inactive)
Cc1[nH]c2ccccc2c1/C=N/c1ccc(/N=C/c2c(C)[nH]c3ccccc23)cc1,47.9 µM (inactive),16.5 µM (inactive),30.8 µM (inactive),42.6 µM (inactive),14.7 µM (inactive),19.1 µM (inactive),41 µM (inactive),25.5 µM (inactive),17.5 µM (inactive),80.5 µM (inactive),37.4 µM (inactive),18.3 µM (inactive),53 µM (inactive),25.4 µM (inactive),50.4 µM (inactive),17.5 µM (inactive),61.2 µM (inactive),40.6 µM (inactive),36.9 µM (inactive),49.8 µM (inactive)
CCOC(=O)C(NC(=O)c1ccco1)(Nc1nc2ccc(OCC)cc2s1)C(F)(F)F (stereo not drawn),28.6 µM (inactive),25.4 µM (inactive),37.2 µM (inactive),35.6 µM (inactive),> 100 µM (inactive),–,44.9 µM (inactive),15 µM (inactive),27.3 µM (inactive),25.8 µM (inactive),55.3 µM (inactive),–,7.82 µM (inactive),26.9 µM (inactive),25.3 µM (inactive),21.2 µM (inactive),37.9 µM (inactive),43.1 µM (inactive),33.5 µM (inactive),52.8 µM (inactive)
N#CC(c1ccccc1)N1CCCN(C(C#N)c2ccccc2)C1c1ccccc1O (stereo not drawn),> 100 µM (inactive),> 100 µM (inactive),> 100 µM (inactive),> 100 µM (inactive),0.0362 µM (active),> 100 µM (inactive),48.3 µM (inactive),22.7 µM (inactive),93.5 µM (inactive),> 100 µM (inactive),> 100 µM (inactive),60.5 µM (inactive),> 100 µM (inactive),> 100 µM (inactive),> 100 µM (inactive),> 100 µM (inactive),> 100 µM (inactive),> 100 µM (inactive),> 100 µM (inactive),> 100 µM (inactive)
CC(=O)c1ccc2c3c1O[C@H]1c4[nH]c5ccccc5c4C[C@@]4(O)[C@@H](C2)N(CC2CC2)CC[C@]314,14.5 µM (inactive),16.7 µM (inactive),21.3 µM (inactive),16.5 µM (inactive),16.1 µM (inactive),16.9 µM (inactive),11.4 µM (inactive),14.5 µM (inactive),15.5 µM (inactive),8.67 µM (inactive),20.6 µM (inactive),18.3 µM (inactive),13.8 µM (inactive),19.9 µM (inactive),10.1 µM (inactive),19.1 µM (inactive),19.1 µM (inactive),15.6 µM (inactive),–,20.1 µM (inactive)
CC1=CC2C(O1)C1C(=O)C=CC(=O)C1=CC2[N+](=O)[O-] (stereo not drawn),15.8 µM (inactive),6.75 µM (inactive),–,18.6 µM (inactive),8.11 µM (inactive),16.6 µM (inactive),16 µM (inactive),2.14 µM (inactive),13.8 µM (inactive),25.5 µM (inactive),25.4 µM (inactive),9.33 µM (inactive),14.8 µM (inactive),3.85 µM (inactive),19.9 µM (inactive),1.71 µM (inactive),18.1 µM (inactive),18.7 µM (inactive),> 43.7 µM (inactive),> 100 µM (inactive)
CSC(=O)/C=C1\SS/C(=C\C(=O)SC)S1,1.69 µM (inactive),2.74 µM (inactive),2.13 µM (inactive),0.796 µM (active),1.12 µM (active),1.55 µM (inactive),2.99 µM (inactive),2.83 µM (inactive),1.69 µM (inactive),2.34 µM (inactive),10.5 µM (inactive),1.55 µM (inactive),1.24 µM (inactive),5.83 µM (inactive),3.09 µM (inactive),2.39 µM (inactive),1.82 µM (inactive),5.36 µM (inactive),1.8 µM (inactive),–
O=C1/C(=C\Oc2ccc(F)cc2)N2CCC1CC2,55 µM (inactive),49 µM (inactive),33.3 µM (inactive),25.9 µM (inactive),35.2 µM (inactive),25.7 µM (inactive),> 100 µM (inactive),41.4 µM (inactive),34.8 µM (inactive),46.2 µM (inactive),0.544 µM (active),52.1 µM (inactive),25.1 µM (inactive),54.6 µM (inactive),> 100 µM (inactive),50.8 µM (inactive),94.6 µM (inactive),> 100 µM (inactive),–,> 100 µM (inactive)
Clc1ccc(-c2ccc(-c3nnc(CCc4nnc(-c5ccc(-c6ccc(Cl)cc6)o5)o4)o3)o2)cc1,> 100 µM (inactive),> 61.4 µM (inactive),–,> 100 µM (inactive),4.81 µM (inactive),> 100 µM (inactive),> 100 µM (inactive),> 27.5 µM (inactive),> 100 µM (inactive),> 100 µM (inactive),> 100 µM (inactive),34 µM (inactive),25.8 µM (inactive),75.7 µM (inactive),> 100 µM (inactive),24.8 µM (inactive),> 100 µM (inactive),31.5 µM (inactive),> 100 µM (inactive),> 45 µM (inactive)
COc1ccc(Cn2c3c(cc(OC(C)=O)c2=O)Cc2ccccc2-3)cc1,11.2 µM (inactive),13.7 µM (inactive),10.9 µM (inactive),9.1 µM (inactive),5.64 µM (inactive),6.12 µM (inactive),10.7 µM (inactive),9.98 µM (inactive),6.52 µM (inactive),1.81 µM (inactive),12.2 µM (inactive),–,8.36 µM (inactive),14.6 µM (inactive),8.41 µM (inactive),7.01 µM (inactive),7.55 µM (inactive),17 µM (inactive),3.33 µM (inactive),20 µM (inactive)
COc1ccc2c(c1)N(CCC1CCCCN1C)c1ccccc1S2 (stereo not drawn) [OXYRIDAZINE],16.1 µM (inactive),11.4 µM (inactive),18.2 µM (inactive),12.6 µM (inactive),9.14 µM (inactive),9.57 µM (inactive),15.6 µM (inactive),9.08 µM (inactive),12.8 µM (inactive),12 µM (inactive),13.2 µM (inactive),12.4 µM (inactive),7.18 µM (inactive),10.8 µM (inactive),10.8 µM (inactive),13.1 µM (inactive),13.4 µM (inactive),16 µM (inactive),–,16.3 µM (inactive)
CN(C)c1ccc(/C=c2/c3ccccc3n3c2cc(NC(=O)NCCC[N+](C)(C)C)[n+]3C)cc1,> 100 µM (inactive),46.6 µM (inactive),> 100 µM (inactive),> 100 µM (inactive),42.9 µM (inactive),61.2 µM (inactive),45.4 µM (inactive),30.6 µM (inactive),> 100 µM (inactive),> 100 µM (inactive),> 100 µM (inactive),22.9 µM (inactive),> 100 µM (inactive),6.41 µM (inactive),> 100 µM (inactive),29.4 µM (inactive),0.432 µM (active),53.7 µM (inactive),–,> 100 µM (inactive)
CC(=O)O[C@H]1C(=O)[C@@]2(C)[C@H]([C@H](OC(=O)c3ccccc3)[C@@]3(O)C[C@H](O)C(C)=C1C3(C)C)[C@]1(OC(C)=O)CO[C@@H]1C[C@@H]2O,32.4 µM (inactive),30.4 µM (inactive),> 100 µM (inactive),36 µM (inactive),61.9 µM (inactive),45.3 µM (inactive),22.2 µM (inactive),> 100 µM (inactive),30.5 µM (inactive),> 100 µM (inactive),34.7 µM (inactive),13.7 µM (inactive),37.1 µM (inactive),> 100 µM (inactive),28 µM (inactive),17 µM (inactive),49.4 µM (inactive),37.5 µM (inactive),–,22.7 µM (inactive)
CC1=NN(c2nc(N)nc(CO)n2)C(C)(C)C1,> 100 µM (inactive),> 100 µM (inactive),–,> 100 µM (inactive),> 100 µM (inactive),> 100 µM (inactive),> 100 µM (inactive),> 100 µM (inactive),> 100 µM (inactive),> 100 µM (inactive),> 100 µM (inactive),> 100 µM (inactive),> 100 µM (inactive),> 100 µM (inactive),> 100 µM (inactive),> 100 µM (inactive),> 100 µM (inactive),> 100 µM (inactive),> 100 µM (inactive),> 100 µM (inactive)

# Source: ChEMBL document CHEMBL1201862, “PubChem BioAssay data set” (2004)
